One series concerns the target T1, DPP-IV enzyme (Homo sapiens, UniProt P27487).
T1 construct: purchased Cayman Chemical (only as the URL of the kit insert) 700210
Put plainly: In vitro DPP-IV enzymatic assay. Format: biochemical. Particulars: means of three independent determinations. The source says: The prepared compounds were investigated in vitro for their ability to inhibit the DPP-IV enzyme, and the detailed method is already described in our previously published paper.

Series [1] relates to STZ-induced diabetic rats. Put plainly: In vivo antidiabetic activity, STZ-induced T2DM model, fasting blood glucose. The settings on record: compounds 50 mg/kg, sitagliptin 10 mg/kg, daily for 21 days, six rats. Further details: species or system Wistar rats. From the text:
The antihyperglycemic potential of certain compounds was investigated in Wistar rats. STZ-induced diabetic rats were employed for the antihyperglycemic testing. The animal experiments were approved by the Institutional Animal Ethics Committee (IAEC) in New Delhi, India (Protocol Number: IAEC/MCP/009/2020). During the research period, the Committee for the Purpose of Control and Supervision of Experiments on Animals (CPCSEA) and IAEC criteria for animal care were followed.
Rats were given a high-fat diet after one week of acclimation. Diabetes was induced in the animals as per the method each described in [25]. Rats were then divided into six groups with six animals. Group I served as normal control with normal rats receiving the vehicle only. Group II served as diabetes control in which rats received the vehicle only. […] Groups IV, V, and VI served as test groups and received compounds 1b, 5b, and 4c, respectively, at doses of 50 mg/kg b.w. The diabetic rats were given the tested compound suspended in 0.5% w/v CMC every day for 21 days. On days 1, 7, 14, and 21, blood samples were taken from the tail veins of each animal that had fasted overnight. A glucometer was used to measure blood glucose levels.

Another series relates to rats. Put plainly: Acute toxicity studies (OECD guideline 423). Format: in vivo. The settings on record: oral, 500 mg/kg body weight, monitored for 72 h. As for the experimental part: Acute toxicity studies were performed as per the OECD guideline 423. For compounds 1b, 4c, and 5b, three groups of six rats weighing 80–120 g were starved overnight and given the test compounds orally at doses of 200, 500, 1000, and 2000 mg/kg body weight. The animals were monitored for 72 h, for symptoms of acute toxicity, such as increased or reduced motor activity, tremors, convulsions, and drowsiness, among others. […] As a result, the OECD-recommended dosage for assessing the antidiabetic action was set at 50 mg/kg (i.e., […]).

The next series relates to ob/ob mice. The settings on record: 10 mg/kg p.o., cited from earlier work.

T1 sequence (P27487 whole entry): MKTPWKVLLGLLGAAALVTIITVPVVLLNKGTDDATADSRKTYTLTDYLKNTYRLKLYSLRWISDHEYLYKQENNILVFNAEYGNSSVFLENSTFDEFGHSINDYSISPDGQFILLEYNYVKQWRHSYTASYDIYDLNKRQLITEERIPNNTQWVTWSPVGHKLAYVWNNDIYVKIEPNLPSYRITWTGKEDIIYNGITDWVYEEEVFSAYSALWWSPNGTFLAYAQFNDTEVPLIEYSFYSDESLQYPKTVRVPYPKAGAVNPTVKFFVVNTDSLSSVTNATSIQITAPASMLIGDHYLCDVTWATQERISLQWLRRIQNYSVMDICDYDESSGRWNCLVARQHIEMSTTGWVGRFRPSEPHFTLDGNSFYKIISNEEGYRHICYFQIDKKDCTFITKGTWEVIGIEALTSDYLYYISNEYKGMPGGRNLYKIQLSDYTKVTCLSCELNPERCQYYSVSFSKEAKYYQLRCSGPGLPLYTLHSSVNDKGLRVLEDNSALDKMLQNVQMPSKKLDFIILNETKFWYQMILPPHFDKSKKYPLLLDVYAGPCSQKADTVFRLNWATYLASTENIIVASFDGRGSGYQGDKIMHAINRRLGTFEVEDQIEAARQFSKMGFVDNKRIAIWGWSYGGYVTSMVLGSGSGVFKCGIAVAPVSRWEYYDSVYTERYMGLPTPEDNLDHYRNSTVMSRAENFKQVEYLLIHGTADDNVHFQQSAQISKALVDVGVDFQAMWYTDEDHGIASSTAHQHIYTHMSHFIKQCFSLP

At DPP-IV enzyme, `CC1=C(C(=O)N/N=C/c2ccccc2)C(c2ccccc2)NC(=O)N1` (stereo not shown) [Compound 1a, (E)-N-Benzylidene-6-methyl-2-oxo-4-phenyl-1,2,3,4-tetrahydropyrimidine-5-carbohydrazide] showed an inhibition at 50 µM of 40.74 ± 0.38% and an IC50 of 58.95 ± 0.0012 µM.

On to `CC1=C(C(=O)N/N=C/c2ccccc2O)C(c2ccccc2)NC(=O)N1` (stereo not shown) [Compound 1b, (E)-N-(2-Hydroxybenzylidene)-6-methyl-2-oxo-4-phenyl-1,2,3,4-tetrahydropyrimidine-5-carbohydrazide], for which, in series [1], the “Fasting Blood Glucose ± SEM, On Day 1” value is recorded as 261.00 ± 8.44 mg/dL; the “Fasting Blood Glucose ± SEM, On Day 7” value was found to be 215.03 ± 3.29 mg/dL; the “Fasting Blood Glucose ± SEM, On Day 14” value turned out to be 187.05 ± 6.48 mg/dL; the “Fasting Blood Glucose ± SEM, On Day 21” value turned out to be 160.12 ± 6.18 mg/dL. The “Acute toxicity, mortality” value in the series on rats is “more than half of the animals died”. On DPP-IV enzyme, this molecule returned an inhibition at 50 µM of 42.69 ± 0.28% and an IC50 of 54.73 ± 0.0025 µM.

Consider `COc1ccccc1/C=N/NC(=O)C1=C(C)NC(=O)NC1c1ccccc1` (stereo not shown) [Compound 1c, (E)-N-(2-Methoxybenzylidene)-6-methyl-2-oxo-4-phenyl-1,2,3,4-tetrahydropyrimidine-5-carbohydrazide], for which, on DPP-IV enzyme, testing at 50 µM gave an inhibition of 56.47 ± 0.37% and half-maximal inhibition (IC50) required 39.72 ± 0.0027 µM.

At DPP-IV enzyme, `COc1ccc(/C=N/NC(=O)C2=C(C)NC(=O)NC2c2ccccc2)cc1` (stereo not shown) [Compound 1d, (E)-N-(4-Methoxybenzylidene)-6-methyl-2-oxo-4-phenyl-1,2,3,4-tetrahydropyrimidine-5-carbohydrazide] registered an inhibition at 50 µM of 57.74 ± 0.38% and a half-maximal inhibitory concentration (IC50) of 38.26 ± 0.005 µM.

As for `CC1=C(C(=O)N/N=C/c2ccccc2)C(c2ccccc2Cl)NC(=O)N1` (stereo not shown) [Compound 2a, (E)-N-Benzylidene-4-(2-chlorophenyl)-6-methyl-2-oxo-1,2,3,4-tetrahydropyrimidin-5-carbohydrazide], at DPP-IV enzyme, the inhibition at 50 µM stood at 61.25 ± 0.16% and 32.41 ± 0.0033 µM corresponded to half-maximal inhibition (IC50).

On DPP-IV enzyme, `CC1=C(C(=O)N/N=C/c2ccccc2O)C(c2ccccc2Cl)NC(=O)N1` (stereo not shown) [Compound 2b, (E)-4-(2-Chlorophenyl)-N-(2-hydroxybenzylidene)-6-methyl-2-oxo-1,2,3,4-tetrahydropyrimidine-5-carbohydrazide] had an inhibition at 50 µM of 65.5 ± 0.08% and an IC50 of 31.93 ± 0.0029 µM.

Take `COc1ccccc1/C=N/NC(=O)C1=C(C)NC(=O)NC1c1ccccc1Cl` (stereo not shown) [Compound 2c, (E)-4-(2-Chlorophenyl)-N-(2-methoxybenzylidene)-6-methyl-2-oxo-1,2,3,4-tetrahydropyrimidine-5-carbohydrazide]: at DPP-IV enzyme, the inhibition at 50 µM came to 63.25 ± 0.05% and the midpoint of inhibition, the IC50, lay at 33.97 ± 0.0025 µM.

Turning to `COc1ccc(/C=N/NC(=O)C2=C(C)NC(=O)NC2c2ccccc2Cl)cc1` (stereo not shown) [Compound 2d, (E)-4-(2-Chlorophenyl)-N-(4-methoxybenzylidene)-6-methyl-2-oxo-1,2,3,4-tetrahydropyrimidine-5-carbohydrazide], on DPP-IV enzyme, testing at 50 µM gave an inhibition of 64.78 ± 0.33% and the IC50 came to 31.72 ± 0.0021 µM.

Consider `CC1=C(C(=O)N/N=C/c2ccccc2)C(c2ccc(Cl)cc2Cl)NC(=O)N1` (stereo not shown) [Compound 3a, (E)-N-Benzylidene-4-(2,4-dichlorophenyl)-6-methyl-2-oxo-1,2,3,4-tetrahydropyrimidine-5-carbohydrazide], for which, on DPP-IV enzyme, the inhibition at 50 µM came out at 61.25 ± 0.16% and the IC50 worked out at 33.91 ± 0.0029 µM.

As for `CC1=C(C(=O)N/N=C/c2ccccc2O)C(c2ccc(Cl)cc2Cl)NC(=O)N1` (stereo not shown) [Compound 3b, (E)--4-(2,4-Dichlorophenyl)-N-(2-hydroxybenzyldene)-6-methyl-2-oxo-1,2,3,4-tetrahydropyrimidine-5-carbohydrazide], on DPP-IV enzyme, 50 µM produced 61 ± 0.08% inhibition and the IC50 turned out to be 33.79 ± 0.0021 µM.

Take `COc1ccccc1/C=N/NC(=O)C1=C(C)NC(=O)NC1c1ccc(Cl)cc1Cl` (stereo not shown) [Compound 3c]: at DPP-IV enzyme, the inhibition at 50 µM was determined as 61 ± 0.08% and the 50% inhibitory concentration (IC50) is 33.73 ± 0.0024 µM.

On DPP-IV enzyme, `CC1=C(C(=O)N/N=C/c2ccccc2)C(c2ccccc2F)NC(=O)N1` (stereo not shown) [Compound 4a] returned an inhibition at 50 µM of 64.78 ± 0.33% and a half-inhibitory concentration (IC50) of 30.47 ± 0.0025 µM.

With `CC1=C(C(=O)N/N=C/c2ccccc2O)C(c2ccccc2F)NC(=O)N1` (stereo not shown) [Compound 4b, (E)--4-(2-Fluorophenyl)-N-(2-hydroxybenzyldene)-6-methyl-2-oxo-1,2,3,4-tetrahydropyrimidine-5-carbohydrazide], at DPP-IV enzyme, testing at 50 µM gave an inhibition of 63.8 ± 0.16% and the half-maximal inhibitory concentration (IC50) is 31.75 ± 0.0027 µM.

For `COc1ccccc1/C=N/NC(=O)C1=C(C)NC(=O)NC1c1ccccc1F` (stereo not shown) [Compound 4c, (E)--4-(2-Fluorophenyl)-N-(2-methoxybenzyldene)-6-methyl-2-oxo-1,2,3,4-tetrahydropyrimidine-5-carbohydrazide], in series [1], the “Fasting Blood Glucose ± SEM, On Day 1” value was 264.66 ± 5.70 mg/dL; the “Fasting Blood Glucose ± SEM, On Day 7” value is recorded as 237.16 ± 9.01 mg/dL; the “Fasting Blood Glucose ± SEM, On Day 14” value is 194.83 ± 4.81 mg/dL; the “Fasting Blood Glucose ± SEM, On Day 21” value turned out to be 169.66 ± 8.53 mg/dL. In addition, the “Acute toxicity, mortality” value with rats is “more than half of the animals died”. In addition, at DPP-IV enzyme, at 50 µM the inhibition was 60.4 ± 0.08% and half-maximal inhibition (IC50) required 34.94 ± 0.0016 µM.

At DPP-IV enzyme, `COc1ccc(/C=N/NC(=O)C2=C(C)NC(=O)NC2c2ccccc2F)cc1` (stereo not shown) [Compound 4d, (E)--4-(2-Fluorophenyl)-N-(4-methoxybenzyldene)-6-methyl-2-oxo-1,2,3,4-tetrahydropyrimidine-5-carbohydrazide] came in with an inhibition at 50 µM of 57.74 ± 0.38% and a half-maximal inhibitory concentration (IC50) of 38.62 ± 0.0025 µM.

On DPP-IV enzyme, `CC1=C(C(=O)N/N=C/c2ccccc2)C(c2ccc(F)cc2F)NC(=O)N1` (stereo not shown) [Compound 5a, (E)-N-Benzylidene-4-(2,4-difluorophenyl)-6-methyl-2-oxo-1,2,3,4-tetrahydropyrimidine-5-carbohydrazide] registered an inhibition at 50 µM of 44.2 ± 0.28% and a half-inhibitory concentration (IC50) of 65.31 ± 0.0021 µM.

In the case of `CC1=C(C(=O)N/N=C/c2ccccc2O)C(c2ccc(F)cc2F)NC(=O)N1` (stereo not shown) [Compound 5b, (E)--4-(2,4-Difluorophenyl)-N-(2-hydroxybenzyldene)-6-methyl-2-oxo-1,2,3,4-tetrahydropyrimidine-5-carbohydrazide], in series [1], the “Fasting Blood Glucose ± SEM, On Day 1” value is given as 253.83 ± 4.49 mg/dL; the “Fasting Blood Glucose ± SEM, On Day 7” value was determined as 182.00 ± 8.11 mg/dL; the “Fasting Blood Glucose ± SEM, On Day 14” value amounted to 167.16 ± 6.23 mg/dL; the “Fasting Blood Glucose ± SEM, On Day 21” value is reported as 157.33 ± 5.75 mg/dL. Further, the “Fasting Blood Glucose ± SEM, On Day 21” value in series [1] (listed as Compound 5b) is given as 157.33 ± 5.75 mg/dL. Also, the “Acute toxicity, mortality” value in the series with rats was “more than half of the animals died”. At DPP-IV enzyme, this molecule came in with an inhibition at 50 µM of 70.7 ± 0.37% and an IC50 of 28.13 ± 0.0029 µM.

At DPP-IV enzyme, `COc1ccccc1/C=N/NC(=O)C1=C(C)NC(=O)NC1c1ccc(F)cc1F` (stereo not shown) [Compound 5c] showed an inhibition at 50 µM of 58.54 ± 0.27% and a half-inhibitory concentration (IC50) of 37.63 ± 0.0026 µM.

In the case of `N[C@@H](CC(=O)N1CCn2c(nnc2C(F)(F)F)C1)Cc1cc(F)c(F)cc1F` [Sitagliptin, reference compound], the Long-term inhibition with ob/ob mice (after 8 h) was greater than 70%. Also, in the series on ob/ob mice (at 8 h), the Glucose excursion is listed as 35%. In addition, in series [1], the “Fasting Blood Glucose ± SEM, On Day 1” value is given as 240.16 ± 9.88 mg/dL; the “Fasting Blood Glucose ± SEM, On Day 7” value amounted to 178.66 ± 6.92 mg/dL; the “Fasting Blood Glucose ± SEM, On Day 14” value was found to be 175.16 ± 8.61 mg/dL; the “Fasting Blood Glucose ± SEM, On Day 21” value stood at 133.50 ± 11.80 mg/dL.

The inhibition is the change of the read-out against control, counted positive when it falls. Higher therefore signals a strong effect. By IC50 is commonly meant the midpoint of a concentration-inhibition curve. Read a low IC50 as higher potency.

The values are drawn from paper PMC9822036, “Virtual Screening, Synthesis, and Biological Evaluation of Some Carbohydrazide Derivatives as Potential DPP-IV Inhibitors” (Molecules, 2022).
